Measured values taken from patent US8603965B2, “Pharmaceutical composition for the prophylaxis and treatment of HIV infection and its use” (priority 2006, dated 2013).
“And” between values parts separate entries of the source, which are not always exact repeats. Equal values may be shown once. “Also recorded” adds a separate entry of the source. Read-outs that look alike come from different tables or passages of the source. Ends that are not written are not given here.

Key:
[1] = Pharmacokinetic study of single subcutaneous or intravenous injection of FS-01 in rhesus monkey; assay type: in vivo; conditions: 1.2 mg/kg
Method: Detailed experiment method as follows: three rhesus monkeys, crossover design, with a washout period of more than two weeks. Rhesus monkey was administrated 1.2 mg/kg of FS-01 by subcutaneously or intravenously injection, 1 ml of blood sample were collected at different point of time (0, 1, 5, 15, 30 min, 1, 2, 4, 6, 8, 12, 24 and 48 h). Drug concentration at different time point in blood sample was quantitatively analyzed by LC\MS\MS, utilizing iodine labeled FS-01 as internal standard, C18 column, aqueous solution containing 0.1% TFA and acetonitrile as mobile phase. Pharmacokinetics analysis was carried out according to fitting model based on the concentration of FS-01, determined the half-life (T1/2) in plasma, bioavailability and other pharmacokinetics parameters (FIG. 1).

[2] = Pharmacokinetic study of single subcutaneous injection of pharmaceutical composition containing FS-01 in healthy volunteers; assay type: in vivo, human
Method: 3-period crossover Latin square design was employed, 12 subjects were randomly divided into three groups, four subjects per group, and were sequentially abdomenal and subcutaneously injected by pharmaceutical composition containing 10, 20, 30 mg of FS-01, doses are listed in Table 2. Blood samples were collected at 30-5 min pre-dose, 5, 15, 30 min, 1, 2, 4, 6, 8, 12, 24, 48 and 72 h after injection. The concentration of FS-01 in blood sample was quantitatively analyzed by LC\MS\MS.

HIV [3] = experiment: Multidose subcutaneous injection once daily for 14 days in HIV positive patients (Example 4); assay type: in vivo, human; conditions: 1-30 mg once daily
Method: Twenty-one subjects were divided into 5 groups, received pharmaceutical composition containing 1 mg, 5 mg, 10 mg, 20 mg, 30 mg FS-01 once daily, for 14 days. Determined the viral load before injection and after injection.

HIV [4] = experiment: Multidose subcutaneous injection once daily for 28 days in HIV positive patients (Example 5); assay type: in vivo, human; conditions: 10 mg and 20 mg once daily
Method: (§1) Nineteen HIV patients were divided into two groups, were subcutaneously injected with pharmaceutical composition containing 10 mg and 20 mg of FS-01 once daily, for 28 days. The data was analyzed together with that in Example 4.

[5] = Half-life of FS-01 in HIV patient; conditions: human, in vivo, subcutaneous, 20 mg
Method: as §1
It has been shown in the result that the pharmaceutical composition of the present invention has good safety profile. […] Plasma viral load in HIV infected patient with baseline less than <10,000 c/ml decreased by 1.2 log in 20 mg group 14 days after administration (see FIG. 3). And it is recommended for infected patient with baseline viral load more than 10,000 c/ml to receive combination treatment with other antiviral agents, such as antiretroviral inhibitors or protease inhibitors.

HIV [6] = conditions: HIV fusion assay; cited from earlier work
[7] = plasma, 24 h, read-out: C24 (plasma concentration at 24 h)
[8] = healthy volunteers, 10, 20, 30 mg

Substance | Tmax [1] | Cmax ([1]; plasma) | level at 24 h [1, 7] | level at time molar at 24 h [1, 7] | Tmax ([1]; plasma, read-out: Tmax) | half-life ([1]; plasma, subcutaneous or intravenous injection) | bioavailability ([1]; plasma, subcutaneous or intravenous injection, read-out: bioavailability (BA)) | clearance rate as dose increases [2, 8] | pharmacokinetic process (linearity) [2, 8] | plasma drug concentration after 72 hours ([2]; healthy volunteers, 72 hours after dosing) | Cmax ([2]; human, plasma, sc, 10 mg, healthy volunteers, 10 mg (low dose), single subcutaneous injection) | Cmax ([2]; human, plasma, sc, 20 mg, healthy volunteers, 20 mg (middle dose), single subcutaneous injection) | Cmax ([2]; human, plasma, sc, 30 mg, healthy volunteers, 30 mg (high dose), single subcutaneous injection) | half-life ([2]; human, plasma, sc, healthy volunteers, single subcutaneous injection) | side effects (HIV [3]) | side effects / safety profile (HIV [4]) | half-life [5] | EC50 relative to T-20 (HIV [6])
Ac-SWETWEREIENYTRQIYRILEESQEQQDRNERDLLE-NH2 [FS-01] | 0.25 h-2 h | 508 ng/mL and 108 nM | > 9.8 ng/mL | > 2.07 nM | 0.25 to 2 h | 8.13 ± 3.1 h | 50% | did not slow down; also recorded: did not decrease | linear pattern; also recorded: linear relation | approaching baseline; also recorded: approached to baseline | 104 ng/mL and 22 nM | 213 ng/mL and 45.1 nM | 250 ng/mL and 52.9 nM | 20 ± 18.6 h | No signs of substantial side effects | No signs of substantial side effects | 39 h | –
X-SWETWEREIENYTKQIYKILEESQEQQDRNEKDLLE-Z (not fully specified (N-terminus, C-terminus); printed as X-SWETWEREIENYTKQIYKILEESQEQQDRNEKDLLE-Z) | – | – | – | – | – | – | – | – | – | – | – | – | – | – | – | – | – | 20 times lower than T-20
